The values below are quoted from earlier work in patent publication US20100069397A1, “SEXUAL DYSFUNCTION COMPOUNDS” (Pharmacia AB, priority 2002, published 2010).

The conditions of series [1]: free base; per European Patent Application No. 0 960 621.
For series [2] the following is noted: dose of 1-3 mg, taken 0.5-1 h before sexual activity; per WO 00/40226.

Turning to `CCCc1nn(C)c2c(=O)[nH]c(-c3cc(S(=O)(=O)N4CCN(C)CC4)ccc3OCC)nc12` [sildenafil], the solubility in water entry in series [1] is given as “extremely low solubility in water”.

Regarding `CN[C@@H]1Cc2cccc3[nH]c(=O)n(c23)C1.O=C(O)/C=C\C(=O)O` [(R)-5,6-dihydro-5-(methylamino)-4H-imidazo[4,5-ij]-quinolin-2(1H)-one (Z)-2-butenedioate (1:1)], the “therapeutic effect in sexual dysfunction” value in series [2] is reported as “therapeutically effective”.
